Data reported in ChEMBL document CHEMBL1121498, “Conformationally restricted phenothiazine neuroleptics. 1. 3-(Dimethylamino)-1,2,3,4-tetrahydroazepino[3,2,1-kl]phenothiazine” (J Med Chem, 1980).

Experiments:
[1] = Compound was tested for inhibition of [3H]spiperone binding in membrane preparations obtained from calf caudate.; parameters: species or system Bos taurus
Rattus norvegicus [2] = species: Rattus norvegicus; experiment: Percentage increase in rat corpus striatal HVA synthesis; format: functional
Rattus norvegicus [3] = species: Rattus norvegicus; experiment: (§1) Compound was tested for inhibition of [3H]spiperone binding in membrane preparations obtained from rat corpus striatum.; format: functional
Rattus norvegicus [4] = experiment: Compound was evaluated for its ability to stimulate the synthesis of homovanillic acid (HVA) in rat in vivo; format: functional
Dopamine receptor [5] = biological target: Dopamine receptor (Bos taurus, UniProt Q95136+P20288)
Dopamine receptor [6] = experiment: as §1

| Compound | IC50 [1] | Increase (Rattus norvegicus [2]) | IC50 (Rattus norvegicus [3]) | ED50 (Rattus norvegicus [4]) | IC50 (Dopamine receptor [5]) | IC50 (Dopamine receptor [6]) |
| --- | --- | --- | --- | --- | --- | --- |
| CN(C)C1CCN2c3ccccc3Sc3cccc(c32)C1 (configuration not stated) | 2400 nM | 24% | 2150 nM |  |  |  |
| CN(C)CCCN1c2ccccc2Sc2ccccc21 [PROMAZINE] |  | 250% |  | 200 µmol/kg | 130 nM | 1040 nM |
